The text below walks through data of patent US5382572A, “Alkyl and acyl substituted quinolines” (Schering Corporation, priority 1993, dated 1995).

Like-named read-outs stand apart in the source and are kept apart here.

The subject of one data set is HSV-2, strain MS. Description: Prophylactic guinea pig model of HSV-2 infection. The data set is classed as in vivo. The note with it: test compounds 60 mg/kg s.c., T.I.D., 10 days, from 24 hours before infection; for MLS (Maximum Lesion Scores): scale of 1 (least) to 4 (severe), placebo 3; for NEUROLOGICAL DYSFUNCTIONS (percentage animals developing loss of bladder/hindlimb control): placebo 87. The method, then:
The in vive assessment of anti-HSV efficacy was determined in the prophylactic guinea pig model of HSV infection described by Stansberry et al (1982). Dosing of guinea pigs comprised an initial treatment with test compound given 24 hours prior to virus infection and subsequent administration of the compound every eight hours (T.I.D.) for a total of 10 days. Test compounds were administered subcutaneously in 0.5% buffered methyl celluslose at a dose of 60 mg per kg body weight of the animal. Animals were monitored daily for the development of genital lesions and neurological symptomology, both of which were recorded and compared to the results obtained with parallel groups which received placebo or acyclovir treatment. Efficacy was evaluated for each compound by scoring the ability of the compound to ameliorate genital lesions produced by infection with HSV-2, strain MS, expressed as Maximum Lesion Scores (MLS) on a scale of 1 (least lesion) to 4 (severe lesions).

The test system of a further data set is HSV-2 (strain MS). Description: HSV-β-gal assay: transient expression of beta-galactosidase in transfected HeLa cells superinfected with HSV-2. The data set is classed as cell-based. The note with it: Human alphaherpesvirus 2, HeLa, 24 h, inhibition of beta-galactosidase expression, MOI 5 pfu/cell, read-out: ANTI-HSV ACTIVITY HSV-β-GAL ASSAY IC50. The method, then:
HeLa and Vero cell cultures were maintained in Eagle's Minimal Essential Medium (EMEM) which was supplemented with glutamine, penicillin, streptomycin and 10% fetal calf serum (10% EMEM). Stock cultures of HSV-2 (strain MS available from ATCC VR-540) were grown in and harvested from Vero cells. Viral stocks were titered in Vero cells according to established procedures.
Plasmid pON 245^ori- contains the promoter of the HSV-1 thymidine kinase (tk) gene located immediately 5' of the E. coli lac Z gene. In this arrangement, the tk promoter controls transcription from the bacterial gene in transient expression assays. Additionally, an SV40 polyadenylation signal is present at the 3'-end of the lac Z gene to allow for the efficient translation of the mRNA in eucaryotic cells. The expression of beta-galactosidase in a transient assay using pON 245^ori- is dependent upon superinfection of the transfected cells with HSV. […] For example, see European Patent Application No. 8302149.5 filed Mar. 11, 1988 and published Sep. 14th 1988 as 282,330, the disclosure of which is incorporated herein by reference thereto.
HeLa cells were seeded into 96 well microtiter plates and allowed to grow to 80% confluency (approximately 35000 cells/well). One half microgram of plasmid pON 245^ori- DNA was introduced into the cells of each well by the […] precipitation technique (Grahman and Van der Eb, 1973). Four to six hours later, the cells were rinsed with Hank's Balanced Salt Solution (HBSS), overlaid with 10% EMEM and incubated at 37° C. At 24 hour post-transfection, cells were rinsed, overlaid with 10% EMEM again and re-incubated at 37° C. At 48 hours. post-transfection, cells were rinsed and overlaid with either EMEM containing 2% fetal calf serum (2% EMEM), 2% EM EM containing HSV-2 (strain MS, Multiplicity of Infection [moil =5 pfu/cell) or 2% EMEM containing HSV-2 and the appropriate concentration of the compound to be tested. Twenty-four hours later, the cells were harvested and assayed for beta-galactosidase activity as described below.
All determinations of beta-galactosidase activity were performed in 96 well microtiter plates. The intracellular level of beta-galactosidase activity in each well was determined from cell lysates of the monolayer cultures. Aliquots were assayed by incubation in the presence of beta-galactosiclasesubstrate, 4-methyl-umbelliferyl-β-D-galactoside (MUG, 125 μg/ml, Sigma), for 2 hour. The generation of fluorescent product was quantified on a Microfluor microfluorimeter (Dynatech) after addition of 0.1M glycine, pH 10.3 (Spaete and Mocarski, 1985). The inhibitory activity of a compound was plotted versus the concentration and an IC50 value (the concentration of compound required to reduce beta-galactosidase expression by 50%) was obtained for each compound tested.
Anti-HSV activity refers to the IC50 values in the HSV-β-gal assay which measures anti-viral activity in terms of inhibition of beta-galactosidase expression. The IC50 values refer to the concentration of the compound in micrograms/milliliter needed to reduce beta-galactosidase expression by 50%.

A short description of data set [1]: Compound toxicity assay: 3H-leucine incorporation (translational activity) in HeLa cells. The data set is classed as cell-based. The note with it: human, reduction of leucine incorporation, read-out: CYTOTOXICITY 3H-LEU ASSAY IC50. The method, then:
HeLa cells were treated with inhibitory compound for 24 hours, after which levels of translational activity were assayed.
For assay of translational activity, HeLa cultures were grown to 80% confluency in 96 well microtiter plates, treated with appropriate concentrations of compound in 2% EMEM during an overnight incubation at 37° C., then rinsed with HBSS and overlaid with […] of 2% EMEM containing 8 μCi of tritiated leucine (141 Cμ/mMol, Amersham Corp., Arlington Heights Ill.). After a 1 hour incubation at 36.5° C., the cells were rinsed twice with phosphate buffered saline (PBS) and lysed in 400 μl/well of 1×PBS, 0.5% sodium dodecyl sulphate (SDS). After a 10 min incubation at 36.5° C., the contents of the well were transferred to a well in a Millititer HA microfiltration plate (Millipore Corp., Bedford, Mass.). The TCA-insoluble proteins were precipitated onto the filter disc by a 10-minute-fixation with 5% TCA, followed by filtration under vacuum and three 10-minute-rinses with 95% ethanol. The filters were dried at room temperature, cut from the millititer plate and transferred to scintillation vials. TCA precipitable counts were assayed in 5 ml of Scintisol (Isolab, Akron, Ohio). The inhibitory activity of a compound was plotted versus the concentration and an IC50 value (that concentration of the compound required to decrease cellular translational activity by 50%) was derived for each compound.
Cytotoxicity refers to the IC50 values in the 3H-leucine (3H-Leu) incorporation. The IC50 values in this test refer to the concentration of the compound in micrograms/milliliter which reduces leucine incorporation by 50%.

`COc1c(C(OC(C)=O)OC(C)=O)c(=O)n(Cc2ccccc2)c2ccc(C)cc12` [Formula 1.3]: in the data set on HSV-2, strain MS, the “MLS (Maximum Lesion Scores)” value was 1.8 and the “NEUROLOGICAL DYSFUNCTIONS (percentage animals developing loss of bladder/hindlimb control)” value is given as 0%. Also, in the data set on HSV-2 (strain MS) (first value), the IC50 was 3 µg/mL. In data set [1] (first value), the CC50 at 24 h was 2.7 µg/mL.

Turning to `CC(=O)Oc1ccc2c(c1)c(OC(C)=O)c(C(OC(C)=O)OC(C)=O)c(=O)n2Cc1ccccc1` [Formula 1.2], the IC50 turned out to be 2.5 µg/mL in the data set with HSV-2 (strain MS) (*Repeat) and 3 µg/mL in the data set on HSV-2 (strain MS) (first value). The CC50 at 24 h in data set [1] (*Repeat) stood at 3 µg/mL; in data set [1] (first value), 21.5 µg/mL.

As to `CC(=O)Oc1c(C(OC(C)=O)OC(C)=O)c(=O)n(Cc2ccccc2)c2ccc(OCc3ccccc3)cc12` [Formula 1.15], the IC50 with HSV-2 (strain MS) (*Repeat) and in the data set with HSV-2 (strain MS) (first value) was 10 µg/mL in each case. In addition, the CC50 at 24 h in data set [1] (*Repeat) came out at 40 µg/mL; in data set [1] (first value), 29 µg/mL.

As to `CCCCCCn1c(=O)c(C(OC)OC)c(OC)c2cc(C)ccc21` [Formula 1.17], in the data set on HSV-2 (strain MS) (first value), the IC50 is 5 µg/mL. The CC50 at 24 h in data set [1] (first value) amounted to 30 µg/mL.

For `CC(=O)Oc1c(C(OC(C)=O)OC(C)=O)c(=O)n(C)c2ccccc12` [Formula 1.5], in the data set on HSV-2, strain MS, the “MLS (Maximum Lesion Scores)” value is recorded as 1.3. In the data set with HSV-2, strain MS, the “NEUROLOGICAL DYSFUNCTIONS (percentage animals developing loss of bladder/hindlimb control)” value was 0%. Further, the values for the half-maximal inhibitory concentration (IC50) with HSV-2 (strain MS) (*Repeat) and in the data set on HSV-2 (strain MS) (first value) were 3 µg/mL and 4 µg/mL, respectively. Besides, the CC50 at 24 h in data set [1] (*Repeat) and in data set [1] (first value) was 25 µg/mL in each case.

Turning to `Nc1nc2c(ncn2COCCO)c(=O)[nH]1` [Acyclovir, 9-[(2-hydroxyethoxy)methyl]guanine, reference compound], in the data set with HSV-2, strain MS, the “MLS (Maximum Lesion Scores)” value is reported as 1.5 and the “NEUROLOGICAL DYSFUNCTIONS (percentage animals developing loss of bladder/hindlimb control)” value came to 50%.

On to `CCCCCCn1c(=O)c(C(OC(C)=O)OC(C)=O)c(OC)c2cc(C)ccc21` [Formula 1.4], for which the IC50 in the data set with HSV-2 (strain MS) (first value) came to 3 µg/mL. Further, the CC50 at 24 h in data set [1] (first value) turned out to be 2.5 µg/mL.

As for `CCCCCCn1c(=O)c(C(OC(C)=O)OC(C)=O)c(OC(C)=O)c2cc(C)ccc21` [Formula 1.9], the “MLS (Maximum Lesion Scores)” value with HSV-2, strain MS was found to be 2.5. Moreover, in the data set on HSV-2, strain MS, the “NEUROLOGICAL DYSFUNCTIONS (percentage animals developing loss of bladder/hindlimb control)” value was 75%. The IC50 was determined as 8 µg/mL with HSV-2 (strain MS) (*Repeat) and 6 µg/mL in the data set on HSV-2 (strain MS) (first value). Moreover, the CC50 at 24 h in data set [1] (*Repeat) turned out to be 37 µg/mL; in data set [1] (first value) it was 32 µg/mL.

In the case of `CC(=O)Oc1c(C(OC(C)=O)OC(C)=O)c(=O)n(Cc2ccccc2)c2ccc(C)cc12` [Formula 1.10], in the data set with HSV-2 (strain MS) (first value), the IC50 came out at 7 µg/mL. In data set [1] (first value), the CC50 at 24 h is 18 µg/mL.

Turning to `CCC(=O)Oc1c(C(OC(=O)CC)OC(=O)CC)c(=O)n(C)c2ccccc12` [Formula 1.12], the IC50 in the data set with HSV-2 (strain MS) (*Repeat) came out at 7 µg/mL; in the data set on HSV-2 (strain MS) (first value), 8 µg/mL. The CC50 at 24 h in data set [1] (*Repeat) and in data set [1] (first value) was 29 µg/mL each time.

For `C=CCOC(=O)Cn1c(=O)c(C(OC(C)=O)OC(C)=O)c(OC(C)=O)c2ccccc21` [Formula 1.16], the IC50 in the data set on HSV-2 (strain MS) (first value) amounted to 10 µg/mL. Moreover, the CC50 at 24 h in data set [1] (first value) stood at 43 µg/mL.

For the molecule `CCCCCCCn1c(=O)c(C(OC(C)=O)OC(C)=O)c(OC(C)=O)c2ccccc21` [Formula 1.11], the concentration for half-maximal inhibition (IC50) in the data set on HSV-2 (strain MS) (*Repeat) is 10 µg/mL; in the data set with HSV-2 (strain MS) (first value), 8 µg/mL. Besides, the CC50 at 24 h in data set [1] (*Repeat) came to 43 µg/mL; in data set [1] (first value), 25 µg/mL.

On to `CCCCCCn1c(=O)c(C(OC(C)=O)OC(C)=O)c(OC)c2ccccc21` [Formula 1.1], for which, in the data set on HSV-2 (strain MS) (first value), the IC50 came out at 1.4 µg/mL. Moreover, the CC50 at 24 h in data set [1] (first value) came to 6 µg/mL.

On to `CC(=O)Oc1c(C(OC(C)=O)OC(C)=O)c(=O)n(-c2ccccc2)c2ccccc12` [Formula 1.7], for which the 50% inhibitory concentration (IC50) in the data set with HSV-2 (strain MS) (*Repeat) and in the data set on HSV-2 (strain MS) (first value) was 4 µg/mL in each case. Further, the figures for the CC50 at 24 h in data set [1] (*Repeat) and in data set [1] (first value) were 18 µg/mL and 20 µg/mL, respectively.

In the case of `COc1c(C(OC(C)=O)OC(C)=O)c(=O)n(C)c2ccccc12` [Formula 1.13], in the data set with HSV-2 (strain MS) (first value), the half-inhibitory concentration (IC50) came to 8 µg/mL. Moreover, the CC50 at 24 h in data set [1] (first value) came out at 18 µg/mL.

`CCCCC(=O)Oc1c(C(OC(=O)CCCC)OC(=O)CCCC)c(=O)n(C)c2ccccc12` [Formula 1.8]: the IC50 was 4 µg/mL in the data set with HSV-2 (strain MS) (*Repeat) and 5 µg/mL in the data set on HSV-2 (strain MS) (first value). Besides, the CC50 at 24 h in data set [1] (*Repeat) was over 10 µg/mL; in data set [1] (first value), 30 µg/mL.
